In US7534814B2, “Mutilin derivatives and their use as antibacterials” (Nabriva Therapeutics AG, priority 1999, dated 2009):
Converted amounts (≈) assume the structure as drawn. Where two headings read alike, the source gives them in different places. Each block holds one compound with its values, some of them ahead of it.

Key:
Assay type in all cases: cell-based
[1] = system: Staphylococcus aureus MSSA; assay: MIC in Agar Dilution Test or Micro Dilution Test (NCCLS M7-A4); details: examples tested in the form of a hydrochloride
Description: (§1) For example, the active compounds of the present invention show antimicrobial, e.g. antibacterial activity against gram negative bacterias, such as Escherichia coli; and against gram positive bacteria, such as Staphylococcus aureus, Streptococcus pyogenes, Streptococcus pneumonlae, Mycoplasms, Chlamydia and obligatory anaerobes, e.g. Bacteroides fragilis; in vitro in the Agar Dilution Test or Microdilution Test according to National Commitee for Clinical Laboratory Standards (NCCLS) 1997, Document M7-A4 Vol.17, No. 2: “Methods for dilution Antimicrobial Susceptibility Tests for Bacteria that Grow Aerobically—Fourth Edition, Approved Standard”; and e.g. in vivo in systemic infections in mice.
(§2) The active compounds of the invention show an surprising overall activity spectrum. For example, it has been determined that the active compounds of the present invention show surprising activity in vitro against Enterococcus faecium, including vancomycin-resistant strains; against Staphylococcus aureus including methicillin sensitive (MSSA) and methicdllin-resistant (MRSA) strains; and against Streptococcus pneumoniae including penicillin-resistant strains; e.g. in the Agar Dilution Test or in the Micro Dilution Test in Mueller-Hinton agar or Mueller-Hinton broth with or without supplements according to the approved standard reference methods of the National Committee for Clinical Laboratory Standards (NCCLS), Document M7-A4 for aerobic bacteria.

[2] = system: Staphylococcus aureus MRSA; assay: as above
Description: as §1, §2

[3] = system: penicillin-resistant Streptococcus pneumoniae; assay: as above
Description: as §1, §2

[4] = system: Enterococcus faecalis strain ATCC 29212; assay: MIC in Agar Dilution Test or Microdilution Test; details: examples tested in the form of an hydrochloride
Description: as §1

MIC ([1]; read-out: MIC): ~1.6 µg/mL (≈ 2.14 µM)
MIC ([2]; read-out: MIC): > 25.6 µg/mL
MIC [3]: > 2.56 µg/mL
Structure (SMILES): CC[C@H]1OC(=O)[C@H](C)[C@@H](O[C@H]2C[C@@](C)(OC)[C@@H](O)[C@H](C)O2)[C@H](C)[C@@H](O[C@@H]2O[C@H](C)C[C@H](N(C)C)[C@H]2O)[C@](C)(O)C[C@@H](C)CN(C)[C@H](C)[C@@H](O)[C@]1(C)O [azithromycin]

Structure (SMILES): C=C[C@]1(C)C[C@@H](OC(=O)CSc2cccc(NC(=O)[C@H]3CCCCN3)c2)[C@]2(C)[C@H](C)CC[C@]3(CCC(=O)[C@H]32)[C@@H](C)[C@@H]1O [Example 1]
MIC [1]: ca. 0.025 μg/ml
MIC [2]: ≤ 0.0125 µg/mL

Structure (SMILES): C=C[C@]1(C)C[C@@H](OC(=O)CSc2cccc(N)c2)[C@]2(C)[C@H](C)CC[C@]3(CCC(=O)[C@H]32)[C@@H](C)[C@@H]1O [Example 52, 14-O-[(3-Amino-phenylsulfanyl)acetyl]mutilin]
MIC [1]: ca. 0.025 μg/ml

MIC [4]: ca. 1.6 μg/ml
Structure (SMILES): CC[C@H]1OC(=O)[C@H](C)[C@@H](O[C@H]2C[C@@](C)(OC)[C@@H](O)[C@H](C)O2)[C@H](C)[C@@H](O[C@@H]2O[C@H](C)C[C@H](N(C)C)[C@H]2O)[C@](C)(O)C[C@@H](C)C(=O)[C@H](C)[C@@H](O)[C@]1(C)O [erythromycin A]
